Measurements: US20130259986A1, “COMPOSITIONS AND METHODS FOR INHIBITING PRECIPITATION OF DYES IN A BEVERAGE” (Kraft Foods Global Brands LLC, priority 2012, published 2013)

Experiments:
[1] = Observation of precipitate in model solutions of azo-dye, salt, benzaldehyde and water; type: physicochemical; settings: for precipitation of a single azo-dye from solutions: solutions with (1) blends of two or more salts, (2) sweetener, (3) fiber (inulin) with sodium chloride; for precipitate in a solution of the substance and water: substance and water only
Text: It was observed that many solutions fail to keep a single azo-dye species stable in the presence of electrolyte ions. For example, the azo-dye (Yellow 5, Yellow 6, or Red 40) precipitated from solutions containing the following: (1) blends of two or more salts (including potassium chloride, tripotassium phosphate, sodium chloride, and magnesium chloride) with a single azo-dye; (2) sweetener (including sucrose, fructose, and raw honey) and a single azo-dye; and (3) fiber (such as inulin) with sodium chloride and a single azo-dye.
Such precipitate is believed to be crystals of the azo-dye or possibly even co-crystals of the azo-dye with sodium chloride, sodium ions, chloride ions, or sodium and chloride ions. It is believed that the presence of an ion (not limited to sodium and/or chloride) creates an unfavorable environment for the azo-dye to exist in and causes the azo-dye to precipitate or crystallize. However, this crystallization or precipitation is not observed when levels of salt or azo-dye are below the threshold for the reaction to occur.
While wishing to not be bound by theory, a solution of benzaldehyde, salt, Red 40, and water causes precipitation through a different mechanism when compared to precipitate found from solutions of salt, an azo-dye, and water. […] Such precipitate is believed to be due the complexation of salt, Red 40, and benzaldehyde. This complexation may occur due to the thermodynamic unfavorability of all three components to exist in solution with one another. The precipitation found in this system appears to be more sediment-like rather than crystal-like precipitate found in a solution of Red 40, salt, and water. However, crystals or co-crystals may exist within the salt, Red 40, and benzaldehyde complexation and this complexation is not observed when levels of salt, azo-dye, or benzaldehyde are below the threshold for the reaction to occur.

[2] = Example 5: precipitation from 90× electrolyte beverage product with 0.45 wt % Red 40 and added benzaldehyde solution or propylene glycol; type: physicochemical
Description: A 90× electrolyte beverage product was made without flavor containing 0.45 wt % Red 40, and a 3.0% benzaldehyde solution was made with propylene glycol. The benzaldehyde solution was then added back to the flavorless base at various levels up to 10%. As a control, the same variants were made without benzaldehyde solution, but with 100% propylene glycol, to confirm that any precipitation was directly due to the benzaldehdye and not propylene glycol. The formulations are as follows: […]

[3] = 4 % added to 90 % electrolyte base (0.45 wt % Red 40), 0.12% benzaldehyde for the benzaldehyde solution
[4] = 6 % added to 90 % electrolyte base (0.45 wt % Red 40), 0.18% benzaldehyde for the benzaldehyde solution
[5] = 8 % added to 90 % electrolyte base (0.45 wt % Red 40), 0.24% benzaldehyde for the benzaldehyde solution
[6] = 10 % added to 90 % electrolyte base (0.45 wt % Red 40), 0.3% benzaldehyde for the benzaldehyde solution

SMILES	precipitate / complexation in a solution of salt, azo-dye, benzaldehyde, and water [1]	precipitation of a single azo-dye from solutions [1]	precipitate in a solution of the substance and water [1]	Observations after 2 months at 70 F. (room temp) ([2]; 0.1 % added to 90 % electrolyte base (0.45 wt % Red 40))	Observations after 2 months at 70 F. (room temp) ([2]; 0.25 % added to 90 % electrolyte base (0.45 wt % Red 40))	Observations after 2 months at 70 F. (room temp) ([2]; 0.5 % added to 90 % electrolyte base (0.45 wt % Red 40))	Observations after 2 months at 70 F. (room temp) ([2]; 1 % added to 90 % electrolyte base (0.45 wt % Red 40))	Observations after 2 months at 70 F. (room temp) ([2]; 2 % added to 90 % electrolyte base (0.45 wt % Red 40))	Observations after 2 months at 70 F. (room temp) [2, 3]	Observations after 2 months at 70 F. (room temp) [2, 4]	Observations after 2 months at 70 F. (room temp) [2, 5]	Observations after 2 months at 70 F. (room temp) [2, 6]	benzaldehyde content at which the system is free of precipitation ([2]; 90× electrolyte concentrate with 0.45 wt % Red 40, stored for up to 2 months)
COc1cc(S(=O)(=O)[O-])c(C)cc1N=Nc1c(O)ccc2cc(S(=O)(=O)[O-])ccc12.[Na+].[Na+] [Red 40]	not stable and produces precipitate	precipitated	free of precipitate										
O=S(=O)([O-])c1ccc(N=Nc2c(O)ccc3cc(S(=O)(=O)[O-])ccc23)cc1.[Na+].[Na+] [Yellow 6]	no complexations were observed	precipitated	free of precipitate										
CC(O)CO (stereo not drawn) [PG 100%, Propylene Glycol]				No precipitation	No precipitation	No precipitation	No precipitation	No precipitation	No precipitation	No precipitation	No precipitation	No precipitation	
O=C(O)c1nn(-c2ccc(S(=O)(=O)O)cc2)c(O)c1N=Nc1ccc(S(=O)(=O)O)cc1 [Yellow 5]	no complexations were observed	precipitated	free of precipitate										
O=Cc1ccccc1 [benzaldehyde]			free of precipitate						formed precipitation	formed precipitation	formed precipitation within hours	formed precipitation within hours	up to 0.11%
